Laboratory results from patent US11472811B2, “Pyrazolotriazolopyrimidine derivatives as A2A receptor antagonist” (BEIGENE, LTD., priority 2018, dated 2022).

Target: human A2A receptor (A2AR) (Homo sapiens (Human), UniProt P29274)
Assay: Luciferase reporter assay (HEK293-A2AR-luc2p/CRE/Hygro cells)
Format: cell-based
Conditions: 3 nM CGS21680, 5 h incubation
Summary of the method: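 Antagonism was scored as inhibition of CRE-luciferase signal driven by 3 nM CGS21680 (=100%) during a 5 h treatment with compound at 0.1–10000 nM. The line was HEK293 stably carrying human A2AR and luc2P/CRE, preincubated 18 h in 1% FBS containing 1 U/mL ADA. IC50 came from the dose-response curve.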

Sequence of human A2A receptor (A2AR) (P29274 whole entry): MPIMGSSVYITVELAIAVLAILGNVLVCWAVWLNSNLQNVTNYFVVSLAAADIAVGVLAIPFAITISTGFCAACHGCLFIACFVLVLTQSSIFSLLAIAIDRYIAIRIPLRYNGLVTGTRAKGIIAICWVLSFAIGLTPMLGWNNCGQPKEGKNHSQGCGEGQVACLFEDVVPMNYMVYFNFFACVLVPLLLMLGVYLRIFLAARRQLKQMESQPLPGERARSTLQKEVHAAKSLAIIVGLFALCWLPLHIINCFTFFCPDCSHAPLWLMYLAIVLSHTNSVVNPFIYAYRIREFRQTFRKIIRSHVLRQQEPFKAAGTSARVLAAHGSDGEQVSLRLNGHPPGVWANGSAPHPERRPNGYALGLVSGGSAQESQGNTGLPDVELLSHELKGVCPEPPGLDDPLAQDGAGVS

Row | IC50 | Structure (SMILES)
1 | 10.7 nM | C[C@](C(=O)N[C@H]1C[C@H](O)C1)(c1ccccc1)n1ncc2c1nc(N)n1nc(-c3ccco3)nc21 [Example 102B, (R)-2-(5-amino-2-(furan-2-yl)-7H-pyrazolo[4,3-e][1,2,4]triazolo[1,5-c]pyrimidin-7-yl)-(trans)-N-(3-hydroxycyclobutyl)-2-phenylpropanamide]
2 | 7.9 nM | CC(C(=O)N[C@H]1CC[C@@H](O)C1)(c1ccccc1)n1ncc2c1nc(N)n1nc(-c3ccco3)nc21 (stereo partly drawn) [Example 136, 2-(5-amino-2-(furan-2-yl)-7H-pyrazolo[4,3-e][1,2,4]triazolo[1,5-c]pyrimidin-7-yl)-N-((1S,3R)-3-hydroxycyclopentyl)-2-phenylpropanamide]
3 | 14.6 nM | Nc1nc2c(cnn2C(C(=O)NC2COc3ccccc32)c2ccccc2)c2nc(-c3ccco3)nn12 (stereo not drawn) [Example 20, 2-(5-amino-2-(furan-2-yl)-7H-pyrazolo[4,3-e][1,2,4]triazolo[1,5-c]pyrimidin-7-yl)-N-(2,3-dihydrobenzofuran-3-yl)-2-phenylacetamide]
4 | 10.8 nM | CC(C(=O)NCCc1ccccc1)(c1ccccc1)n1ncc2c1nc(N)n1nc(-c3ccco3)nc21 (stereo not drawn) [Example 30, 2-(5-amino-2-(furan-2-yl)-7H-pyrazolo[4,3-e][1,2,4]triazolo[1,5-c]pyrimidin-7-yl)-N-phenethyl-2-phenylpropanamide]
5 | 15.3 nM | CCCC(C(=O)NCc1ccccc1OC)n1ncc2c1nc(N)n1nc(-c3ccco3)nc21 (stereo not drawn) [Example 21, 2-(5-amino-2-(furan-2-yl)-7H-pyrazolo[4,3-e][1,2,4]triazolo[1,5-c]pyrimidin-7-yl)-N-(2-methoxybenzyl)pentanamide]
6 | 8.2 nM | CC(C(=O)N[C@@H]1CCCOC1)(c1ccccc1)n1ncc2c1nc(N)n1nc(-c3ccco3)nc21 (stereo partly drawn) [Example 60, 2-(5-amino-2-(furan-2-yl)-7H-pyrazolo[4,3-e][1,2,4]triazolo[1,5-c]pyrimidin-7-yl)-2-phenyl-N—((R)-tetrahydro-2H-pyran-3-yl)propanamide]
7 | 0.9 nM | COc1ccc(CNC(=O)[C@@](C)(c2ccccc2)n2ncc3c2nc(N)n2nc(-c4ccco4)nc32)nc1 [Example 113B, (R)-2-(5-amino-2-(furan-2-yl)-7H-pyrazolo[4,3-e][1,2,4]triazolo[1,5-c]pyrimidin-7-yl)-N-((5-methoxypyridin-2-yl)methyl)-2-phenylpropanamide]
8 | 11.1 nM | CC(C(=O)N[C@H]1CCCOC1)(c1ccccc1)n1ncc2c1nc(N)n1nc(-c3ccco3)nc21 (stereo partly drawn) [Example 59, 2-(5-amino-2-(furan-2-yl)-7H-pyrazolo[4,3-e][1,2,4]triazolo[1,5-c]pyrimidin-7-yl)-2-phenyl-N—((S)-tetrahydro-2H-pyran-3-yl)propanamide]
9 | 9.5 nM | CC(C(=O)Nc1ccccc1)(c1ccccc1)n1ncc2c1nc(N)n1nc(-c3ccco3)nc21 (stereo not drawn) [Example 34, 2-(5-amino-2-(furan-2-yl)-7H-pyrazolo[4,3-e][1,2,4]triazolo[1,5-c]pyrimidin-7-yl)-N,2-diphenylpropanamide]
10 | 1.7 nM | C[C@](C(=O)NCCC1CCC(O)CC1)(c1ccccc1)n1ncc2c1nc(N)n1nc(-c3ccco3)nc21 (stereo partly drawn) [Example 149B, (R)-2-(5-amino-2-(furan-2-yl)-7H-pyrazolo[4,3-e][1,2,4]triazolo[1,5-c]pyrimidin-7-yl)-N-(2-(4-hydroxycyclohexyl)ethyl)-2-phenylpropanamide]
11 | 3.7 nM | CC(C(=O)NCC1CCCO1)(c1ccccc1)n1ncc2c1nc(N)n1nc(-c3ccco3)nc21 (stereo not drawn) [Example 49, 2-(5-amino-2-(furan-2-yl)-7H-pyrazolo[4,3-e][1,2,4]triazolo[1,5-c]pyrimidin-7-yl)-2-phenyl-N-((tetrahydrofuran-2-yl)methyl)propanamide]
12 | 31 nM | CC(C(=O)NCC1COC1)(c1ccccc1)n1ncc2c1nc(N)n1nc(-c3ccco3)nc21 (stereo not drawn) [Example 79, 2-(5-amino-2-(furan-2-yl)-7H-pyrazolo[4,3-e][1,2,4]triazolo[1,5-c]pyrimidin-7-yl)-N-(oxetan-3-ylmethyl)-2-phenylpropanamide]

Further lines, the compound ahead of its results:

Row | Structure (SMILES) | IC50
13 | C[C@](C(=O)NCc1ccc(C(F)(F)F)cn1)(c1ccccc1)n1ncc2c1nc(N)n1nc(-c3ccco3)nc21 [Example 142B, (R)-2-(5-amino-2-(furan-2-yl)-7H-pyrazolo[4,3-e][1,2,4]triazolo[1,5-c]pyrimidin-7-yl)-2-phenyl-N-((5-(trifluoromethyl)pyridin-2-yl)methyl)propanamide] | 1 nM
14 | CN(C)CCNC(=O)C(C)(c1ccccc1)n1ncc2c1nc(N)n1nc(-c3ccco3)nc21 (stereo not drawn) [Example 62, 2-(5-amino-2-(furan-2-yl)-7H-pyrazolo[4,3-e][1,2,4]triazolo[1,5-c]pyrimidin-7-yl)-N-(2-(dimethylamino)ethyl)-2-phenylpropanamide] | 91.1 nM
15 | CC1(O)CC(NC(=O)[C@@](C)(c2ccccc2)n2ncc3c2nc(N)n2nc(-c4ccco4)nc32)C1 (stereo in doubt) [Example 105B, (R)-2-(5-amino-2-(furan-2-yl)-7H-pyrazolo[4,3-e][1,2,4]triazolo[1,5-c]pyrimidin-7-yl)-(cis)-N-(3-hydroxy-3-methylcyclobutyl)-2-phenylpropanamide] | 5 nM
16 | CC(C(=O)NCC1(O)COC1)(c1ccccc1)n1ncc2c1nc(N)n1nc(-c3ccco3)nc21 (stereo not drawn) [Example 31, 2-(5-amino-2-(furan-2-yl)-7H-pyrazolo[4,3-e][1,2,4]triazolo[1,5-c]pyrimidin-7-yl)-N-((3-hydroxyoxetan-3-yl)methyl)-2-phenylpropanamide] | 5.8 nM
17 | CC(C(=O)N[C@H]1C[C@H](O)C1)(c1ccccc1)n1ncc2c1nc(N)n1nc(-c3ccco3)nc21 (relative stereo) [Example 102, 2-(5-amino-2-(furan-2-yl)-7H-pyrazolo[4,3-e][1,2,4]triazolo[1,5-c]pyrimidin-7-yl)-(trans)-N-(3-hydroxycyclobutyl)-2-phenylpropanamide] | 13.3 nM
18 | COCCOc1ccc(N2CCC(NC(=O)C(C)(c3ccccc3)n3ncc4c3nc(N)n3nc(-c5ccco5)nc43)CC2)cc1 (stereo not drawn) [Example 46, 2-(5-amino-2-(furan-2-yl)-7H-pyrazolo[4,3-e][1,2,4]triazolo[1,5-c]pyrimidin-7-yl)-N-(1-(4-(2-methoxyethoxy)phenyl)piperidin-4-yl)-2-phenylpropanamide] | 10.9 nM
19 | CC(C(=O)NCC1(O)COC1)(c1ccccc1F)n1ncc2c1nc(N)n1nc(-c3ccco3)nc21 (stereo not drawn) [Example 87, 2-(5-amino-2-(furan-2-yl)-7H-pyrazolo[4,3-e][1,2,4]triazolo[1,5-c]pyrimidin-7-yl)-2-(2-fluorophenyl)-N-((3-hydroxyoxetan-3-yl)methyl)propanamide] | 4.9 nM
20 | CC(C)(C(=O)NCC1(O)COC1)n1ncc2c1nc(N)n1nc(-c3ccco3)nc21 [Example 138, 2-(5-amino-2-(furan-2-yl)-7H-pyrazolo[4,3-e][1,2,4]triazolo[1,5-c]pyrimidin-7-yl)-N-((3-hydroxyoxetan-3-yl)methyl)-2-methylpropanamide] | 33.2 nM
21 | COc1ccc(CNC(=O)C(c2ccccc2)n2ncc3c2nc(N)n2nc(-c4ccco4)nc32)cc1 (stereo not drawn) [Example 28, 2-(5-amino-2-(furan-2-yl)-7H-pyrazolo[4,3-e][1,2,4]triazolo[1,5-c]pyrimidin-7-yl)-N-(4-methoxybenzyl)-2-phenylacetamide] | 1.6 nM
